Columns and labels:
Assay type in all cases: binding
KRAS G12S = target: T1, KRAS G12S (Homo sapiens, UniProt P01116, G12S); assay: HTRF assay of K-Ras G12S interaction with SOS1 (PPI-HTRF); settings: 5 nM KRAS G12S, read-out: PPI-HTRF-5 nM KRAS G12S
T1 construct: made in house; host or cells: E. coli, e.g. BL21 (DE3)
How it was run: (§1)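 Equilibrium binding between GST-K-Ras and His-tagged human SOS1 is measured by FRET from a europium anti-GST donor to an XL665 anti-His acceptor. Compounds are run in duplicate at 10, 2.5, 0.63, 0.16, 0.04 and 0.01 μM, and IC50 is calculated from the 665/620 nm ratio.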

KRAS G12D = target: T2, KRAS G12D (Homo sapiens, UniProt P01116, G12D); assay: HTRF assay of K-Ras G12D interaction with SOS1 (PPI-HTRF); settings: HTRF, 5 nM KRAS G12D; read-out: PPI-HTRF-5 nM KRAS G12D
T2 construct: made in house; host or cells: E. coli, e.g. BL21 (DE3)
T2 sequence (P01116 1-188 isoform P01116-2 G12D): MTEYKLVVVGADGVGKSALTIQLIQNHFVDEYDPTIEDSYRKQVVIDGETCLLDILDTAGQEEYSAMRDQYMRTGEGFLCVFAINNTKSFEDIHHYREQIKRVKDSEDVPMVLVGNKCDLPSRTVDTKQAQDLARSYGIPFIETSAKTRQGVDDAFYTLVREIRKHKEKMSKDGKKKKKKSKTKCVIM
How it was run: as §1

KRAS WT = target: T3, KRAS WT (Homo sapiens, UniProt P01116); assay: HTRF assay of wildtype K-Ras interaction with SOS1 (PPI-HTRF); settings: HTRF, 5 nM KRAS WT; read-out: PPI-HTRF-5 nM KRAS WT
T3 construct: made in house; host or cells: E. coli, e.g. BL21 (DE3)
T3 sequence (P01116 1-188 isoform P01116-2): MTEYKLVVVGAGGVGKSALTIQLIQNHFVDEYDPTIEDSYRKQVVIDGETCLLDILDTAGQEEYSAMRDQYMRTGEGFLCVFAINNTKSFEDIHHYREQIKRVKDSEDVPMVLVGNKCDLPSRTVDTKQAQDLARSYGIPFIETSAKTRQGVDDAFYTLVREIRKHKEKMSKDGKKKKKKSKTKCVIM
How it was run: as §1

T1 sequence (P01116 1-188 isoform P01116-2 G12S): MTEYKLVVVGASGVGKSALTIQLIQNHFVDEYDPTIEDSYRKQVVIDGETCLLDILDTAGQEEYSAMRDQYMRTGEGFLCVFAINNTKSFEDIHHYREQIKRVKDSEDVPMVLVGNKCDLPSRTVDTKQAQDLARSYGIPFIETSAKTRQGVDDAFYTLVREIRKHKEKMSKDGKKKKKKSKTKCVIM

IC50 (KRAS G12S)	IC50 (KRAS G12D)	IC50 (KRAS WT)	SMILES
< 5 µM	< 5 µM	< 5 µM	Cc1nc(C)n(C(=O)N2CCC23CCN(c2nc(OC[C@@]45CCCN4C[C@H](F)C5)nc4c(F)c(-c5ccc(F)c6sc(N)c(C#N)c56)c(Cl)cc24)C3)n1 (stereo partly drawn) [Compound 226, 2-amino-4-(6-chloro-4-(1-(3,5-dimethyl-1H-1,2,4-triazole-1-carbonyl)-1,6-diazaspiro[3.4]octan-6-yl)-8-fluoro-2-(((2R,7aS)-2-fluorotetrahydro-1H-pyrrolizin-7a(5H)-yl)methoxy)quinazolin-7-yl)-7-fluorobenzo[b]thiophene-3-carbonitrile]
< 5 µM	< 5 µM	< 5 µM	N#Cc1c(N)sc2c(F)ccc(-c3c(Cl)cc4c(N5CCC6(CCN6C=O)C5)nc(OC[C@@]56CCCN5C[C@H](F)C6)nc4c3F)c12 (stereo partly drawn) [Compound 227, 2-amino-4-(6-chloro-8-fluoro-2-(((2R,7aS)-2-fluorotetrahydro-1H-pyrrolizin-7a(5H)-yl)methoxy)-4-(1-formyl-1,6-diazaspiro[3.4]octan-6-yl)quinazolin-7-yl)-7-fluorobenzo[b]thiophene-3-carbonitrile]
< 5 µM	< 5 µM	< 5 µM	N#Cc1c(N)sc2c(F)ccc(-c3c(Cl)cc4c(N5CCC6(C5)N(C(=O)C5CC5(F)F)CC6(F)F)nc(OC[C@@]56CCCN5C[C@H](F)C6)nc4c3F)c12 (stereo partly drawn) [Compound 228, 2-amino-4-(6-chloro-4-(1-(2,2-difluorocyclopropane-1-carbonyl)-3,3-difluoro-1,6-diazaspiro[3.4]octan-6-yl)-8-fluoro-2-(((2R,7aS)-2-fluorotetrahydro-1H-pyrrolizin-7a(5H)-yl)methoxy)quinazolin-7-yl)-7-fluorobenzo[b]thiophene-3-carbonitrile]
< 5 µM	< 5 µM	< 5 µM	C[C@H]1N(c2nc(OC[C@@]34CCCN3C[C@H](F)C4)nc3c(F)c(-c4ccc(F)c5sc(N)c(C#N)c45)c(Cl)cc23)CC[C@]12CCN2C(=O)n1cnc(Cl)n1 [Compound 229, 2-amino-4-(6-chloro-4-((4S,5R)-1-(3-chloro-1H-1,2,4-triazole-1-carbonyl)-5-methyl-1,6-diazaspiro[3.4]octan-6-yl)-8-fluoro-2-(((2R,7aS)-2-fluorotetrahydro-1H-pyrrolizin-7a(5H)-yl)methoxy)quinazolin-7-yl)-7-fluorobenzo[b]thiophene-3-carbonitrile]
< 5 µM	< 5 µM	< 5 µM	Nc1nc2c(-c3c(Cl)cc4c(NC5CC6(CCN6)C5)nc(OC[C@@]56CCCN5C[C@H](F)C6)nc4c3F)ccc(F)c2s1 (stereo partly drawn) [Compound 230, 4-(4-((1-azaspiro[3.3]heptan-6-yl)amino)-6-chloro-8-fluoro-2-(((2R,7aS)-2-fluorotetrahydro-1H-pyrrolizin-7a(5H)-yl)methoxy)quinazolin-7-yl)-7-fluorobenzo[d]thiazol-2-amine]
< 5 µM	< 5 µM	< 5 µM	N#Cc1c(N)sc2c(F)ccc(-c3c(Cl)cc4c(N5CCC6(C5)NCC6(F)F)nc(OC[C@@]56CCCN5C[C@H](F)C6)nc4c3F)c12 (stereo partly drawn) [Compound 232, 2-amino-4-(6-chloro-4-(3,3-difluoro-1,6-diazaspiro[3.4]octan-6-yl)-8-fluoro-2-(((2R,7aS)-2-fluorotetrahydro-1H-pyrrolizin-7a(5H)-yl)methoxy)quinazolin-7-yl)-7-fluorobenzo[b]thiophene-3-carbonitrile]
< 5 µM	< 5 µM	< 5 µM	Nc1nc2c(-c3c(Cl)cc4c(N5CCCC6(CC5)CCN6C=O)nc(OC[C@@]56CCCN5C[C@H](F)C6)nc4c3F)ccc(F)c2s1 (stereo partly drawn) [Compound 233, 7-(7-(2-amino-7-fluorobenzo[d]thiazol-4-yl)-6-chloro-8-fluoro-2-(((2R,7aS)-2-fluorotetrahydro-1H-pyrrolizin-7a(5H)-yl)methoxy)quinazolin-4-yl)-1,7-diazaspiro[3.6]decane-1-carbaldehyde]
< 5 µM	< 5 µM	< 5 µM	C[C@H](Oc1nc(N2CCCC3(CCN3C(=O)[C@@H]3C[C@H]3C#N)C2)c2cc(Cl)c(-c3ccc(F)c4sc(N)c(C#N)c34)c(F)c2n1)[C@@H]1CCCN1C (stereo partly drawn) [Compound 235, 2-amino-4-(6-chloro-4-(1-((1R,2R)-2-cyanocyclopropane-1-carbonyl)-1,6-diazaspiro[3.5]nonan-6-yl)-8-fluoro-2-((S)-1-((S)-1-methylpyrrolidin-2-yl)ethoxy)quinazolin-7-yl)-7-fluorobenzo[b]thiophene-3-carbonitrile]
< 5 µM	< 5 µM	< 5 µM	N#Cc1c(N)sc2c(F)ccc(-c3c(Cl)cc4c(N5CCCC6(CCN6)C5)nc(OC[C@@]56CCCN5C[C@H](F)C6)nc4c3F)c12 (stereo partly drawn) [Compound 236, 2-amino-4-(6-chloro-8-fluoro-2-(((2R,7aS)-2-fluorotetrahydro-1H-pyrrolizin-7a(5H)-yl)methoxy)-4-(1,6-diazaspiro[3.5]nonan-6-yl)quinazolin-7-yl)-7-fluorobenzo[b]thiophene-3-carbonitrile]
< 5 µM	> 5 µM	< 5 µM	N#Cc1c(N)sc2c(F)ccc(-c3c(Cl)cc4c(N5CCC6(CCN6C(=O)OC(C(F)(F)F)C(F)(F)F)C5)nc(OC[C@@]56CCCN5C[C@H](F)C6)nc4c3F)c12 (stereo partly drawn) [Compound 237, 1,1,1,3,3,3-hexafluoropropan-2-yl 6-(7-(2-amino-3-cyano-7-fluorobenzo[b]thiophen-4-yl)-6-chloro-8-fluoro-2-(((2R,7aS)-2-fluorotetrahydro-1H-pyrrolizin-7a(5H)-yl)methoxy)quinazolin-4-yl)-1,6-diazaspiro[3.4]octane-1-carboxylate]
< 5 µM	< 5 µM	< 5 µM	N#Cc1c(N)sc2c(F)ccc(-c3c(Cl)cc4c(N5CC6(CCN6C(=O)n6cncn6)C5)nc(OC[C@@]56CCCN5C[C@H](F)C6)nc4c3F)c12 [Compound 238, 4-(4-(1-(1H-1,2,4-triazole-1-carbonyl)-1,6-diazaspiro[3.3]heptan-6-yl)-6-chloro-8-fluoro-2-(((2R,7aS)-2-fluorotetrahydro-1H-pyrrolizin-7a(5H)-yl)methoxy)quinazolin-7-yl)-2-amino-7-fluorobenzo[b]thiophene-3-carbonitrile]
< 5 µM	> 5 µM	< 5 µM	C#Cc1c(F)ccc2cc(O)cc(-c3ncc4c(N5CCC6(CCN6)C5)nc(O[C@@H](C)[C@@H]5CCCN5C)nc4c3F)c12 (stereo partly drawn) [Compound 239, 5-ethynyl-6-fluoro-4-(8-fluoro-2-((S)-1-((S)-1-methylpyrrolidin-2-yl)ethoxy)-4-(1,6-diazaspiro[3.4]octan-6-yl)pyrido[4,3-d]pyrimidin-7-yl)naphthalen-2-ol]
< 5 µM	< 5 µM	< 5 µM	N#Cc1c(N)sc2c(F)ccc(-c3c(Cl)cc4c(N5CCC6(CCCCN6C(=O)C6CC6(F)F)C5)nc(OC[C@@]56CCCN5C[C@H](F)C6)nc4c3F)c12 (stereo partly drawn) [Compound 240, 2-amino-4-(6-chloro-4-(6-(2,2-difluorocyclopropane-1-carbonyl)-2,6-diazaspiro[4.5]decan-2-yl)-8-fluoro-2-(((2R,7aS)-2-fluorotetrahydro-1H-pyrrolizin-7a(5H)-yl)methoxy)quinazolin-7-yl)-7-fluorobenzo[b]thiophene-3-carbonitrile]
< 5 µM	< 5 µM	< 5 µM	C[C@H](Oc1nc(N2CCC3(CCCN3C(=O)n3cncn3)C2)c2cc(Cl)c(-c3ccc(F)c4sc(N)c(C#N)c34)c(F)c2n1)[C@@H]1CCCN1C (stereo partly drawn) [Compound 241, 4-(4-(1-(1H-1,2,4-triazole-1-carbonyl)-1,7-diazaspiro[4.4]nonan-7-yl)-6-chloro-8-fluoro-2-((S)-1-((S)-1-methylpyrrolidin-2-yl)ethoxy)quinazolin-7-yl)-2-amino-7-fluorobenzo[b]thiophene-3-carbonitrile]
< 5 µM	< 5 µM	< 5 µM	Nc1nc2c(-c3c(Cl)cc4c(N5CCC6(CCN6)C5)nc(OC[C@@]56CCCN5C[C@H](F)C6)nc4c3F)ccc(F)c2s1 (stereo partly drawn) [Compound 242, 4-(6-chloro-8-fluoro-2-(((2R,7aS)-2-fluorotetrahydro-1H-pyrrolizin-7a(5H)-yl)methoxy)-4-(1,6-diazaspiro[3.4]octan-6-yl)quinazolin-7-yl)-7-fluorobenzo[d]thiazol-2-amine]
< 5 µM	< 5 µM	< 5 µM	N#Cc1c(N)sc2c(F)ccc(-c3c(Cl)cc4c(N5CCC6(CCN6C(=O)ON6C(=O)CCC6=O)C5)nc(OC[C@@]56CCCN5C[C@H](F)C6)nc4c3F)c12 (stereo partly drawn) [Compound 243, 2,5-dioxopyrrolidin-1-yl 6-(7-(2-amino-3-cyano-7-fluorobenzo[b]thiophen-4-yl)-6-chloro-8-fluoro-2-(((2R,7aS)-2-fluorotetrahydro-1H-pyrrolizin-7a(5H)-yl)methoxy)quinazolin-4-yl)-1,6-diazaspiro[3.4]octane-1-carboxylate]
< 5 µM	< 5 µM	< 5 µM	N#Cc1c(N)sc2c(F)ccc(-c3c(Cl)cc4c(N5CCC6(CCN6C(=O)C(F)Cl)C5)nc(OC[C@@]56CCCN5C[C@H](F)C6)nc4c3F)c12 (stereo partly drawn) [Compound 244, 2-amino-4-(6-chloro-4-(1-(2-chloro-2-fluoroacetyl)-1,6-diazaspiro[3.4]octan-6-yl)-8-fluoro-2-(((2R,7aS)-2-fluorotetrahydro-1H-pyrrolizin-7a(5H)-yl)methoxy)quinazolin-7-yl)-7-fluorobenzo[b]thiophene-3-carbonitrile]

Reference: US20240116951A1, “HETEROCYCLIC COMPOUNDS AND USES THEREOF” (Kumquat Biosciences Inc., priority 2022, published 2024)
